Measured values taken from paper PMC7031696 (Cell chemical biology, 2019).

System: 3D7-MR4 trophozoite parasite-infected RBCs
Test: Metabolomic profiling (hydrophilic metabolite changes, UHPLC-MS)
Type: cell-based, Plasmodium falciparum

CC(C)(C)c1ccc2c(c1)CN(Cc1ccc(Cl)cc1)CO2 [MMV000442]
Log2(fold changes) adenosine (metabolite adenosine, log2 fold change): 0.0000 | Log2(fold changes) alanine/sarcosine (metabolite alanine/sarcosine, log2 fold change): -0.9186 | Log2(fold changes) anthranilate (metabolite anthranilate, log2 fold change): 0.3315 | Log2(fold changes) arginine (metabolite arginine, log2 fold change): -1.6314 | Log2(fold changes) asparagine (metabolite asparagine, log2 fold change): -0.3296 | Log2(fold changes) aspartate (metabolite aspartate, log2 fold change): -0.6205 | Log2(fold changes) biotin (metabolite biotin, log2 fold change): -0.8987 | Log2(fold changes) cCMP (metabolite cCMP, log2 fold change): 0.0000 | Log2(fold changes) cGMP (metabolite cGMP, log2 fold change): 0.0000 | Log2(fold changes) carnitine (metabolite carnitine, log2 fold change): 0.0000 | Log2(fold changes) citrate/isocitrate (metabolite citrate/isocitrate, log2 fold change): 0.0000 | Log2(fold change) of coenzyme A (metabolite coenzyme A): 0.0000 | Log2(fold change) of cyclic-AMP (metabolite cyclic-AMP): -0.6289 | Log2(fold change) of cytidine (metabolite cytidine): 0.6525 | Log2(fold change) of dAMP (metabolite dAMP): 0.2859 | Log2(fold change) of dATP (metabolite dATP): 0.0000 | Log2(fold change) of dCDP (metabolite dCDP): -0.4379 | Log2(fold change) of dCMP (metabolite dCMP): 0.0000 | Log2(fold change) of dCTP (metabolite dCTP): 0.0000 | Log2(fold change) of dGDP/ADP (metabolite dGDP/ADP): -0.0785 | Log2(fold change) of dGMP/AMP (metabolite dGMP/AMP): 0.0000 | Log2(fold change) of dGTP/ATP (metabolite dGTP/ATP): 0.0000 | Log2(fold change) of dTDP (metabolite dTDP): -0.1987 | Log2(fold change) of dTMP (metabolite dTMP): 0.0000 | Log2(fold change) of dTTP (metabolite dTTP): -0.2587 | Log2(fold change) of dUMP (metabolite dUMP): 0.0000 | Log2(fold change) of dUTP (metabolite dUTP): -0.3266 | Log2(fold change) of deoxyguanosine (metabolite deoxyguanosine): 0.0000 | Log2(fold change) of deoxyinosine (metabolite deoxyinosine): 0.0000 | Log2(fold change) of deoxyribose-phosphate (metabolite deoxyribose-phosphate): 0.7610 | Log2(fold change) of deoxyuridine (metabolite deoxyuridine): 0.1388 | Log2(fold change) of dihydroorotate (metabolite dihydroorotate): -0.6717 | Log2(fold change) of folate (metabolite folate): -0.1041 | Log2(fold change) of fructose-1-6-bisphosphate (metabolite fructose-1-6-bisphosphate): -0.1009 | Log2(fold change) of fructose-6-phosphate (metabolite fructose-6-phosphate): -0.3802 | Log2(fold change) of fumarate (metabolite fumarate): -0.7813 | Log2(fold change) of glucono-lactone (metabolite glucono-lactone): 0.0000 | Log2(fold change) of glucose-1/6-phosphate (metabolite glucose-1/6-phosphate): 0.0000 | Log2(fold change) of glutamate (metabolite glutamate): -0.2803 | Log2(fold change) of glutamine (metabolite glutamine): -0.0929 | Log2(fold change) of glutathione (metabolite glutathione): -0.1808 | Log2(fold change) glutathione disulfide (metabolite glutathione disulfide): -0.3868 | Log2(fold change) glycerate (metabolite glycerate): -0.4490 | Log2(fold change) guanine (metabolite guanine): -0.8448 | Log2(fold change) guanosine (metabolite guanosine): -1.2469 | Log2(fold change) histidine (metabolite histidine): -1.0996 | Log2(fold change) homocysteic acid (metabolite homocysteic acid): -0.4943 | Log2(fold change) hydroxyphenylpyruvate (metabolite hydroxyphenylpyruvate): 0.0000 | Log2(fold change) hydroxyproline/Aminolevulinate (metabolite hydroxyproline/Aminolevulinate): -0.0777 | Log2(fold change) hypoxanthine (metabolite hypoxanthine): -0.1293 | Log2(fold change) indole (metabolite indole): 0.0000 | Log2(fold change) inosine (metabolite inosine): -0.6031 | Log2(fold change) isoleucine (metabolite isoleucine): -0.8559 | Log2(fold change) lactate (metabolite lactate): -0.6662 | Log2(fold change) leucine (metabolite leucine): 0.0000 | Log2(fold change) lysine (metabolite lysine): -2.7291 | Log2(fold change) malate (metabolite malate): -1.5961 | Log2(fold change) maleic acid (metabolite maleic acid): 0.0000 | Log2(fold change) methionine (metabolite methionine): -0.3354 | Log2(fold change) myo-inositol (metabolite myo-inositol): 0.0000 | Log2(fold change) nicotinamide mononucleotide (metabolite nicotinamide mononucleotide): -1.1163 | Log2(fold change) nicotinate (metabolite nicotinate): -0.1414 | Log2(fold change) ornithine (metabolite ornithine): -0.3825 | Log2(fold change) orotate (metabolite orotate): 0.0000 | Log2(fold change) orotidine-5'-phosphate (metabolite orotidine-5'-phosphate): -4.2271 | Log2(fold change) oxaloacetate (metabolite oxaloacetate): 0.0000 | Log2(fold change) p-aminobenzoate (metabolite p-aminobenzoate): 0.0000 | Log2(fold change) p-hydroxybenzoate (metabolite p-hydroxybenzoate): 0.0000 | Log2(fold change) pantothenate (metabolite pantothenate): -0.5576 | Log2(fold change) phenylalanine (metabolite phenylalanine): -0.7473 | Log2(fold change) phenylpyruvate (metabolite phenylpyruvate): 0.0000 | Log2(fold change) phosphoenolpyruvate (metabolite phosphoenolpyruvate): 0.5342 | Log2(fold change) prephenate (metabolite prephenate): -0.6985 | Log2(fold change) proline (metabolite proline): -0.4674 | Log2(fold change) pyridoxine (metabolite pyridoxine): -0.4977 | Log2(fold change) pyruvate (metabolite pyruvate): -0.6971 | Log2(fold change) riboflavin (metabolite riboflavin): 0.0000 | Log2(fold change) ribose (metabolite ribose): -0.3439 | Log2(fold change) ribose-phosphate (metabolite ribose-phosphate): -0.4255 | Log2(fold change) ribulose-5-phosphate (metabolite ribulose-5-phosphate): 0.0000 | Log2(fold change) serine (metabolite serine): -0.2977 | Log2(fold change) sn-glycerol-3-phosphate (metabolite sn-glycerol-3-phosphate): 0.0000 | Log2(fold change) succinate/Methylmalonic acid (metabolite succinate/Methylmalonic acid): 0.2362 | Log2(fold change) succinyl-CoA/methylmalonyl-CoA (metabolite succinyl-CoA/methylmalonyl-CoA): 0.0000 | Log2(fold change) taurine (metabolite taurine): 0.0000 | Log2(fold change) thiamine (metabolite thiamine): -0.4264 | Log2(fold change) threonine/homoserine (metabolite threonine/homoserine): -0.5095 | Log2(fold change) thymidine (metabolite thymidine): 0.0000 | Log2(fold changes) thymine (metabolite thymine, log2 fold change): 0.0000 | Log2(fold changes) trehalose-6-Phosphate (metabolite trehalose-6-Phosphate, log2 fold change): 0.0000 | Log2(fold changes) tryptophan (metabolite tryptophan, log2 fold change): -0.3248 | Log2(fold changes) tyrosine (metabolite tyrosine, log2 fold change): -0.3731 | Log2(fold changes) uridine (metabolite uridine, log2 fold change): -0.7263 | Log2(fold changes) valine (metabolite valine, log2 fold change): 0.0000 | Log2(fold changes) xanthine (metabolite xanthine, log2 fold change): 0.0000 | Log2(fold changes) xanthosine-5-phosphate (metabolite xanthosine-5-phosphate, log2 fold change): 0.0000 | Log2(fold changes) xanthosine (metabolite xanthosine, log2 fold change): -0.5168 | Log2(fold changes) xylose (metabolite xylose, log2 fold change): 0.0000
